Patent US12643880B2, “Heterobifunctional molecules as TEAD inhibitors” (Genentech, Inc., priority 2020, dated 2026)

Tests used:
Type in all cases: binding
Details in all cases: His-tagged TEAD protein, biotinylated lipid pocket probe
TEAD1 = TEAD1 (Homo sapiens, UniProt P28347); test: TEAD lipid pocket TR-FRET (Lipid HTRF) competition assay, TEAD1
Procedure: (§1) His-tagged TEAD proteins are pre-incubated with TEAD project compounds for 30 minutes at room temperature. Biotinylated lipid pocket probes are then added to the TEAD/Compound mixture and incubated for 60 minutes at room temperature. The lipid pocket probe competes with the test compound for the TEAD lipid pocket until equilibrium is reached. After 60 minutes, Europium labelled anti-His (Perkin Elmer #ADO 110) and XL665 labelled streptavidin (CIS Bio 610SAXAC) are added to the TEAD/test compound/lipid pocket mixture and incubated for 30 minutes. TR-FRET values are then measured using an EnVision multi-label plate reader (Perkin Elmer Cat #2104-1A.) If the lipid pocket probe binds to TEAD as expected, a TR-FRET signal results from the proximity of Tani-His Eu and XL665. If a TEAD lipid pocket binder such as binds and displaces the lipid pocket probe, the disruption of the TEAD:probe interaction results in a decrease in TR-FRET signal. The potency of compounds as TEAD lipid pocket binders is determined by IC50 value generated using a non-linear 4 parameter curve fit. This assay format enables more sensitive determinations of lipid pocket affinity than the aforementioned TEAD lipid pocket FP assay due to the decreased concentration of TEAD protein required for the TR-FRET assay format.

TEAD2 = TEAD2 (Homo sapiens, UniProt Q15562); test: TEAD lipid pocket TR-FRET (Lipid HTRF) competition assay, TEAD2
Sequence of TEAD2 (Q15562 whole entry, species assumed): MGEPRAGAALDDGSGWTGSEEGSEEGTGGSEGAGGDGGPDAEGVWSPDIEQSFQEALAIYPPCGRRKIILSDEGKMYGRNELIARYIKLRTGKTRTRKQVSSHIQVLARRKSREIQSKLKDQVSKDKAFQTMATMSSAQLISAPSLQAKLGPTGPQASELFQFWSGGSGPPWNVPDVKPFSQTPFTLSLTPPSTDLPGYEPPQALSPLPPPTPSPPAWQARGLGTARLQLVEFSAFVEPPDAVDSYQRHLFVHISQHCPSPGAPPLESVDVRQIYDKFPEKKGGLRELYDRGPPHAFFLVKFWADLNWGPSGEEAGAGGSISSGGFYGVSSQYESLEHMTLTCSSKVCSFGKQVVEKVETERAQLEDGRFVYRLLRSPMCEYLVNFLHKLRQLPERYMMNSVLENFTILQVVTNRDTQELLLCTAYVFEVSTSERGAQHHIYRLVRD
Procedure: as §1

TEAD3 = TEAD3 (Homo sapiens, UniProt Q99594); test: TEAD lipid pocket TR-FRET (Lipid HTRF) competition assay, TEAD3
Sequence of TEAD3 (Q99594 whole entry, species assumed): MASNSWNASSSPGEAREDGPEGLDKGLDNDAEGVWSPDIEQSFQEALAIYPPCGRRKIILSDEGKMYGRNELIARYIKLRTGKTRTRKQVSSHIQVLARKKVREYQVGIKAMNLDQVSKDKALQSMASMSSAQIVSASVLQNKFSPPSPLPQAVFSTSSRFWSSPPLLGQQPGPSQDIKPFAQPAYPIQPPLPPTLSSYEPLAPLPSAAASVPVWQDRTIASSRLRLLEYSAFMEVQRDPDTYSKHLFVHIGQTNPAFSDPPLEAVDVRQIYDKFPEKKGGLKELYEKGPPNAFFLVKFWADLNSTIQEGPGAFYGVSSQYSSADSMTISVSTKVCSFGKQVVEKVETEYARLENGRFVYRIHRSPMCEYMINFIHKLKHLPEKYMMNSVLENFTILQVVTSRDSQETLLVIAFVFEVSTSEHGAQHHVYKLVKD
Procedure: as §1

TEAD4 = TEAD4 (Homo sapiens, UniProt Q15561); test: TEAD lipid pocket TR-FRET (Lipid HTRF) competition assay, TEAD4
Sequence of TEAD4 (Q15561 whole entry, species assumed): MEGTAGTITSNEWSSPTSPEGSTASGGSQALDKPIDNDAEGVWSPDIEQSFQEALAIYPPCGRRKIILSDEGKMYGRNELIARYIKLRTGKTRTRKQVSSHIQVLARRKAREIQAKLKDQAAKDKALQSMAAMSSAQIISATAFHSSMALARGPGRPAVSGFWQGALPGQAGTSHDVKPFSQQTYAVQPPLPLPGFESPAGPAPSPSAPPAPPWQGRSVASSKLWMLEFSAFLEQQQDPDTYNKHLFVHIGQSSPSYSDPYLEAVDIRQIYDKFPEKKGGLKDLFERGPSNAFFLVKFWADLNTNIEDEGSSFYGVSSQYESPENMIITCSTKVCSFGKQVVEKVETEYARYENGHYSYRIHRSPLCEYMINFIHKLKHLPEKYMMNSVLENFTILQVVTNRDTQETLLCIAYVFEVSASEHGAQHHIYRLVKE
Procedure: as §1

Sequence of TEAD1 (P28347 whole entry, species assumed): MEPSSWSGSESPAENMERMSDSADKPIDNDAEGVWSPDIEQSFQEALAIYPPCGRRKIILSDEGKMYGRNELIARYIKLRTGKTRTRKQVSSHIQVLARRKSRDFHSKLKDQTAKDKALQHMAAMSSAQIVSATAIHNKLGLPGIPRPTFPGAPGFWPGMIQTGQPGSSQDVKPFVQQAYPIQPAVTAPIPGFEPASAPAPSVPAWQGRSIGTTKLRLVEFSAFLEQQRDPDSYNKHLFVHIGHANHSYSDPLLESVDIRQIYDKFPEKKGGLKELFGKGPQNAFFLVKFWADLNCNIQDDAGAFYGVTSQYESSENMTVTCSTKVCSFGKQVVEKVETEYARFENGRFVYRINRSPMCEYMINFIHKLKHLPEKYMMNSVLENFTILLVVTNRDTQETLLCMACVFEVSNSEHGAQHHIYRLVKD

Compound	IC50 (TEAD1) [nM]	IC50 (TEAD2) [nM]	IC50 (TEAD3) [nM]	IC50 (TEAD4) [nM]
COc1cnc(C(=O)NCc2cccc(CC(=O)N(C)CCCCOc3ccc4c(c3)C(=O)N(C3CCC(=O)NC3=O)C4=O)c2)cc1/C=C/[C@H]1CC[C@H](C(F)(F)F)CC1 (stereo partly drawn) [Compound 1, N-(3-(2-((4-((2-(2,6-dioxopiperidin-3-yl)-1,3-dioxoisoindolin-5-yl)oxy)butyl)(methyl)amino)-2-oxoethyl)benzyl)-5-methoxy-4-((E)-2-(trans-4-(trifluoromethyl)cyclohexyl)vinyl)picolinamide]	650	230	6000	90
COc1cnc(C(=O)NCc2cccc(CC(=O)N(C)CCCCCCOc3ccc4c(c3)C(=O)N(C3CCC(=O)NC3=O)C4=O)c2)cc1/C=C/[C@H]1CC[C@H](C(F)(F)F)CC1 (stereo partly drawn) [Compound 2, N-(3-(2-((6-((2-(2,6-Dioxopiperidin-3-yl)-1,3-dioxoisoindolin-5-yl)oxy)hexyl)(methyl)amino)-2-oxoethyl)benzyl)-5-methoxy-4-((E)-2-(trans-4-(trifluoromethyl)cyclohexyl)vinyl)picolinamide]	5750	1150	18800	400
COc1cnc(C(=O)NCc2cccc(CC(=O)N(C)CCOCCOCCOCCOc3ccc4c(c3)C(=O)N(C3CCC(=O)NC3=O)C4=O)c2)cc1/C=C/[C@H]1CC[C@H](C(F)(F)F)CC1 (stereo partly drawn) [Compound 3, N-(3-(14-((2-(2,6-Dioxopiperidin-3-yl)-1,3-dioxoisoindolin-5-yl)oxy)-3-methyl-2-oxo-6,9,12-trioxa-3-azatetradecyl)benzyl)-5-methoxy-4-((E)-2-(trans-4-(trifluoromethyl)cyclohexyl)vinyl)picolinamide]	300	130	4800	60
COc1cnc(C(=O)NCc2cccc(CC(=O)N(C)CCOCCOCCOCCOCCOc3ccc4c(c3)C(=O)N(C3CCC(=O)NC3=O)C4=O)c2)cc1/C=C/[C@H]1CC[C@H](C(F)(F)F)CC1 (stereo partly drawn) [Compound 4, N-(3-(17-((2-(2,6-Dioxopiperidin-3-yl)-1,3-dioxoisoindolin-5-yl)oxy)-3-methyl-2-oxo-6,9,12,15-tetraoxa-3-azaheptadecyl)benzyl)-5-methoxy-4-((E)-2-(trans-4-(trifluoromethyl)cyclohexyl)vinyl)picolinamide]	280	200	1830	70
COc1cnc(C(=O)NCc2cccc(CC(=O)N(C)CCOCCOc3ccc4c(c3)C(=O)N(C3CCC(=O)NC3=O)C4=O)c2)cc1/C=C/[C@H]1CC[C@H](C(F)(F)F)CC1 (stereo partly drawn) [Compound 5, N-(3-(2-((2-(2-((2-(2,6-Dioxopiperidin-3-yl)-1,3-dioxoisoindolin-5-yl)oxy)ethoxy)ethyl)(methyl)amino)-2-oxoethyl)benzyl)-5-methoxy-4-((E)-2-(trans-4-(trifluoromethyl)cyclohexyl)vinyl)picolinamide]	510	180	4000	110
COc1cnc(C(=O)NCc2cccc(CC(=O)N(C)CCOCCOCCOc3ccc4c(c3)C(=O)N(C3CCC(=O)NC3=O)C4=O)c2)cc1/C=C/[C@H]1CC[C@H](C(F)(F)F)CC1 (stereo partly drawn) [Compound 6, N-(3-(2-((2-(2-(2-((2-(2,6-Dioxopiperidin-3-yl)-1,3-dioxoisoindolin-5-yl)oxy)ethoxy)ethoxy)ethyl)(methyl)amino)-2-oxoethyl)benzyl)-5-methoxy-4-((E)-2-(trans-4-(trifluoromethyl)cyclohexyl)vinyl)picolinamide]	1150	180	30000	70
COc1cnc(C(=O)NCc2cccc(CC(=O)N(C)CCOCCOCCOCCOCCOCCOc3ccc4c(c3)C(=O)N(C3CCC(=O)NC3=O)C4=O)c2)cc1/C=C/[C@H]1CC[C@H](C(F)(F)F)CC1 (stereo partly drawn) [Compound 7, N-(3-(20-((2-(2,6-Dioxopiperidin-3-yl)-1,3-dioxoisoindolin-5-yl)oxy)-3-methyl-2-oxo-6,9,12,15,18-pentaoxa-3-azaicosyl)benzyl)-5-methoxy-4-((E)-2-(trans-4-(trifluoromethyl)cyclohexyl)vinyl)picolinamide]	360	110	2000	60
COc1cnc(C(=O)NCc2cccc(CC(=O)N(C)CCCOc3ccc4c(c3)C(=O)N(C3CCC(=O)NC3=O)C4=O)c2)cc1/C=C/[C@H]1CC[C@H](C(F)(F)F)CC1 (stereo partly drawn) [Compound 8, N-(3-(2-((3-((2-(2,6-Dioxopiperidin-3-yl)-1,3-dioxoisoindolin-5-yl)oxy)propyl)(methyl)amino)-2-oxoethyl)benzyl)-5-methoxy-4-((E)-2-(trans-4-(trifluoromethyl)cyclohexyl)vinyl)picolinamide]	720	290	8200	180
COc1cnc(C(=O)NCc2cccc(CC(=O)N(C)CCCCCCCOc3ccc4c(c3)C(=O)N(C3CCC(=O)NC3=O)C4=O)c2)cc1/C=C/[C@H]1CC[C@H](C(F)(F)F)CC1 (stereo partly drawn) [Compound 9, N-(3-(2-((7-((2-(2,6-Dioxopiperidin-3-yl)-1,3-dioxoisoindolin-5-yl)oxy)heptyl)(methyl)amino)-2-oxoethyl)benzyl)-5-methoxy-4-((E)-2-(trans-4-(trifluoromethyl)cyclohexyl)vinyl)picolinamide]	1300	650	5370	320
COc1cnc(C(=O)NCc2cccc(CC(=O)N(C)CCCCCOc3ccc4c(c3)C(=O)N(C3CCC(=O)NC3=O)C4=O)c2)cc1/C=C/[C@H]1CC[C@H](C(F)(F)F)CC1 (stereo partly drawn) [Compound 10, N-(3-(2-((5-((2-(2,6-Dioxopiperidin-3-yl)-1,3-dioxoisoindolin-5-yl)oxy)pentyl)(methyl)amino)-2-oxoethyl)benzyl)-5-methoxy-4-((E)-2-(trans-4-(trifluoromethyl)cyclohexyl)vinyl)picolinamide]	18800	4800	50000	470
COc1cnc(C(=O)NCc2cccc(CC(=O)NCCCCC(=O)N[C@H](C(=O)N3C[C@H](O)C[C@H]3C(=O)NCc3ccc(-c4scnc4C)cc3)C(C)(C)C)c2)cc1/C=C/[C@H]1CC[C@H](C(F)(F)F)CC1 [Compound 11, N-(3-(2-((5-(((S)-1-((2S,4R)-4-Hydroxy-2-((4-(4-methylthiazol-5-yl)benzyl)carbamoyl)pyrrolidin-1-yl)-3,3-dimethyl-1-oxobutan-2-yl)amino)-5-oxopentyl)amino)-2-oxoethyl)benzyl)-5-methoxy-4-((E)-2-(trans-4-(trifluoromethyl)cyclohexyl)vinyl)picolinamide]	700	370	2530	170
COc1cnc(C(=O)NCc2cccc(CC(=O)NCCCCCCC(=O)N[C@H](C(=O)N3C[C@H](O)C[C@H]3C(=O)NCc3ccc(-c4scnc4C)cc3)C(C)(C)C)c2)cc1/C=C/[C@H]1CC[C@H](C(F)(F)F)CC1 [Compound 12, N-(3-(2-((7-(((S)-1-((2S,4R)-4-Hydroxy-2-((4-(4-methylthiazol-5-yl)benzyl)carbamoyl)pyrrolidin-1-yl)-3,3-dimethyl-1-oxobutan-2-yl)amino)-7-oxoheptyl)amino)-2-oxoethyl)benzyl)-5-methoxy-4-((E)-2-(trans-4-(trifluoromethyl)cyclohexyl)vinyl)picolinamide]	1320	690	5900	280
